This is an account of results in ChEMBL document CHEMBL4680321, “Novel indolylarylsulfone derivatives as covalent HIV-1 reverse transcriptase inhibitors specifically targeting the drug-resistant mutant Y181C” (Bioorg Med Chem, 2021).

Series [1] deals with Human immunodeficiency virus type 1 reverse transcriptase (Human immunodeficiency virus 1, UniProt Q72547). The series can be described thus: Inhibition of recombinant HIV-1 BH10 reverse transcriptase using D38/[32P]25PGA as template-primer incubated for 5 mins in presence of DTT followed by dTTP addition and measured after 15 to 30 sec by nucleotide incorporation assay. The arrangement: species or system Human immunodeficiency virus type 1 BH10.

Series [2] is described as follows: Cytotoxicity against human MT4 cells assessed as reduction in cell viability incubated for 5 days by MTT assay. The series is classed as cell-based. The note with it: time 5 day. (In general: Tetrazolium dyes change colour on reduction, which living cells bring about.)
Series [3] has as its system Human immunodeficiency virus 1. The series can be described thus: Antiviral activity against HIV-3B infected in human MT-4 cells assessed as reduction in virus-induced cytopathic effect incubated for 5 days by MTT assay. The note with it: Human immunodeficiency virus 1, 3B, MT4, 120 h. The series is classed as functional, organism-based. On the technique in general: Damage to the host cells serves as the signal in cytopathic effect assays.

Series [4] concerns Human immunodeficiency virus 2. Kind of series: Antiviral activity against HIV2 ROD infected in human MT-4 cells assessed as reduction in virus-induced cytopathic effect incubated for 5 days by MTT assay. The series is classed as functional, organism-based. The note with it: MT4, time 5.0 day.
A short description of series [5]: Stability of compound in PBS buffer at pH 7.4 at 2.5 mM incubated for 24 hrs by reverse phase HPLC analysis. In kind it is physicochemical. The note with it: pH 7.4, 24 h, 2500 µM.
A short description of series [6]: Stability of compound in PBS buffer at pH 2 at 2.5 mM incubated for 24 hrs by reverse phase HPLC analysis. The series is classed as physicochemical. The note with it: pH 2, 24 h, 2500 µM.
For series [7], the system named is Human immunodeficiency virus 1. Kind of series: Antiviral activity against HIV-3B harboring reverse transcriptase Y181C mutant infected in human MT-4 cells assessed as reduction in virus-induced cytopathic effect incubated for 5 days by MTT assay. In kind it is functional, organism-based. The following applies: Human immunodeficiency virus 1, 3B, MT4, 120 h.
A short description of series [8]: Selectivity index, ratio of EC50 for HIV-3B infected in human MT-4 cells to EC50 for HIV-3B harboring reverse transcriptase Y181C mutant infected in human MT-4 cells. In kind it is functional, Human immunodeficiency virus 1.

Calls of active or inactive are those of the source. No cut-off for these calls is given here.

In general, IC50 refers to the concentration that inhibits the measured activity by half. One may read the CC50 as the concentration giving 50% cytotoxicity. Broadly, the EC50 is the midpoint of the concentration-response curve. In the case of `NC(=O)c1[nH]c2ccc(Br)cc2c1S(=O)(=O)N1CCCC1`, the IC50 in series [1] was determined as 0.48 µM. In addition, the CC50 at 120 h in series [2] came out at 35.3 µM. For the same compound, the EC50 in series [3] is 3.6 µM. Besides, the result in series [4] was inactive.
As for `C=CC(=O)N1CC[C@@H](NS(=O)(=O)c2c(C(N)=O)[nH]c3ccc(Br)cc23)C1`, the CC50 at 120 h in series [2] turned out to be 51.8 µM. Moreover, the EC50 in series [3] is more than 51.8 µM. Besides, the outcome in series [4] was inactive.
With `Cc1cc(C#N)cc(C)c1Oc1nc(Nc2ccc(C#N)cc2)nc(N)c1Br` [ETRAVIRINE], the EC50 in series [3] amounted to 0.01 µM.
Consider `C=CS(=O)(=O)N1CC[C@H](NS(=O)(=O)c2c(C(N)=O)[nH]c3ccc(Br)cc23)C1`, for which the IC50 in series [1] is more than 100 µM. In addition, in series [2], the CC50 at 120 h worked out at 16 µM. The values for the EC50 in series [3] and in series [7] were 9.74 µM and 22 µM, respectively. Moreover, the Stabilty result in series [5] and in series [6] was “Stable” each time. In addition, the result in series [4] was inactive. In series [8], the “Ratio EC50” value was 9.3.
Take `Cc1cc(/C=C/C#N)cc(C)c1Nc1ccnc(Nc2ccc(C#N)cc2)n1` [RILPIVIRINE]: the EC50 in series [3] turned out to be 0.01 µM.
On to `C=CS(=O)(=O)NC1CCN(S(=O)(=O)c2c(C(N)=O)[nH]c3ccc(Br)cc23)CC1`, for which the CC50 at 120 h in series [2] was found to be 6.5 µM. In addition, in series [3], the EC50 is more than 6.5 µM. For the same compound, the result in series [4] was inactive.
For `C=CC(=O)N[C@@H]1CCN(S(=O)(=O)c2c(C(N)=O)[nH]c3ccc(Br)cc23)C1`, in that order: 178 µM, more than 178 µM and “inactive”.
The like results for `C=CC(=O)N1CC[C@H](NS(=O)(=O)c2c(C(N)=O)[nH]c3ccc(Br)cc23)C1` were, in that order, 155 µM, more than 155 µM and “inactive”.
For the compound `C=CS(=O)(=O)N1CCC[C@@H](NS(=O)(=O)c2c(C(N)=O)[nH]c3ccc(Br)cc23)C1`, in series [1], the IC50 is more than 100 µM. In addition, the CC50 at 120 h in series [2] was determined as 29 µM. For the same compound, the EC50 in series [3] was more than 29 µM; in series [7], 40.7 µM. Further, in series [4], the outcome was inactive. The “Ratio EC50” value in series [8] came to 7.7.
Take `C=CC(=O)N1CCC[C@@H](NS(=O)(=O)c2c(C(N)=O)[nH]c3ccc(Br)cc23)C1`: in series [2], the CC50 at 120 h turned out to be 43.6 µM. The EC50 in series [3] was more than 43.6 µM. Besides, the result in series [4] was inactive.
For `C=CS(=O)(=O)N[C@@H]1CCN(S(=O)(=O)c2c(C(N)=O)[nH]c3ccc(Br)cc23)C1`, in that order: 2.1 µM, more than 2.1 µM and “inactive”.
The like results for `C=CC(=O)NC1CCN(S(=O)(=O)c2c(C(N)=O)[nH]c3ccc(Br)cc23)CC1` were, in that order, more than 274 µM, 125 µM and “inactive”.
`O=C1Nc2ccc(Cl)cc2[C@@](C#CC2CC2)(C(F)(F)F)O1` [EFAVIRENZ]: the CC50 at 120 h in series [2] was more than 6.3 µM. The result in series [4] was inactive.
